System: Plasmodium berghei
Experiment: Luciferase/luciferin-expressing antifolate-resistant parasites were used to infect a culture of HepG2 cells that were pre-incubated with compounds. Infected hepatocytes emit light due to the luciferase reaction. Assay results are presented as the percent inhibition of light emission compared to control. […]
Type: functional
Conditions: sporozoite; for IC90: read-out: LUCIFERASE INFECTION ASSAY - IC90

| SMILES | IC90 [µM] | other results |
| --- | --- | --- |
| CC(N=C(S)Nc1ccc(OC(F)F)c(Cl)c1)C(C)(C)C (configuration not stated) | > 10 | IC50 (HEPG2TOX_HILL_SLOPE 8.22, HEPG2TOX_R_SQUARED 0.242, PBLUC_HILL_SLOPE 12.6, PBLUC_R_SQUARED 0.772, read-out: LUCIFERASE INFECTION ASSAY - IC50): 8.6 µM |
| CCN(Cc1ccccc1)c1ccc(/C=N/N=C(N)N)cc1 | 5.13 | IC50 (HEPG2TOX_HILL_SLOPE 8.25, HEPG2TOX_R_SQUARED 0.944, PBLUC_HILL_SLOPE 2.7, PBLUC_R_SQUARED 0.838, read-out: LUCIFERASE INFECTION ASSAY - IC50): 2.27 µM |
| O=C(NC1CC1)c1ccc(-c2cn3c(-c4ccc5ncccc5c4)cnc3cn2)cc1 | > 8.14 | IC50 (HEPG2TOX_HILL_SLOPE 8.34, HEPG2TOX_R_SQUARED 0.193, PBLUC_HILL_SLOPE 5.05, PBLUC_R_SQUARED 0.479, read-out: LUCIFERASE INFECTION ASSAY - IC50): 7.19 µM |
| FC(F)(F)c1cccc(-c2ccc3ncc(-c4ccncc4)n3n2)c1 | 1.31 | IC50 (HEPG2TOX_HILL_SLOPE 8.22, HEPG2TOX_R_SQUARED 0.275, PBLUC_HILL_SLOPE 7.22, PBLUC_R_SQUARED 0.51, read-out: LUCIFERASE INFECTION ASSAY - IC50): 0.969 µM |
| COc1ccc(N2C(=O)c3ccccc3C(C=NNC(=O)c3ccc(C)cc3)C2=O)cc1OC (configuration not stated) | 5.03 | IC50 (HEPG2TOX_HILL_SLOPE 8.3, HEPG2TOX_R_SQUARED 0.704, PBLUC_HILL_SLOPE 7.2, PBLUC_R_SQUARED 0.273, read-out: LUCIFERASE INFECTION ASSAY - IC50): 3.7 µM |
| CC(=O)N1N=C(c2ccccc2O)CC1c1c(F)cccc1Cl (configuration not stated) | 9.88 | IC50 (HEPG2TOX_HILL_SLOPE 8.22, HEPG2TOX_R_SQUARED 0.351, PBLUC_HILL_SLOPE 15.6, PBLUC_R_SQUARED 0.178, read-out: LUCIFERASE INFECTION ASSAY - IC50): 8.59 µM |
| COc1ccccc1NC(=O)C(C)OC(=O)c1ccc(NS(=O)(=O)c2ccc(Cl)c(Cl)c2)cc1 (configuration not stated) | > 10 | IC50 (HEPG2TOX_HILL_SLOPE 8.29, HEPG2TOX_R_SQUARED 0.881, read-out: LUCIFERASE INFECTION ASSAY - IC50): > 10 µM |
| Cc1cccc(-c2nnc(Sc3nc(C)nc4sc5c(c34)CCCC5)n2CC(N)=O)c1 | 1.1 | IC50 (HEPG2TOX_HILL_SLOPE 8.24, HEPG2TOX_R_SQUARED 0.61, PBLUC_HILL_SLOPE 14.6, PBLUC_R_SQUARED 0.735, read-out: LUCIFERASE INFECTION ASSAY - IC50): 0.944 µM |
| NC(=O)c1ccc(-c2cc(-c3ccc(F)cc3)cnc2N)cc1 | 2.33 | IC50 (HEPG2TOX_HILL_SLOPE 8.28, HEPG2TOX_R_SQUARED 0.58, PBLUC_HILL_SLOPE 436, PBLUC_R_SQUARED 0.522, read-out: LUCIFERASE INFECTION ASSAY - IC50): 2.32 µM |
| CC(=O)C1C2C(=O)N(C(C)(C)C)C(=O)C2C2C=Cc3ccc4cccnc4c3N21 (configuration not stated) | 6.42 | IC50 (HEPG2TOX_HILL_SLOPE 8.2, HEPG2TOX_R_SQUARED 0.867, PBLUC_HILL_SLOPE 4.87, PBLUC_R_SQUARED 0.475, read-out: LUCIFERASE INFECTION ASSAY - IC50): 4.09 µM |
| C/C(=N\NC(=S)NC(C)(C)C)c1cc(F)cc(F)c1O | 10.5 | IC50 (HEPG2TOX_HILL_SLOPE 8.26, HEPG2TOX_R_SQUARED 0.458, PBLUC_HILL_SLOPE 21.3, PBLUC_R_SQUARED 0.177, read-out: LUCIFERASE INFECTION ASSAY - IC50): 9.5 µM |
| CC(OC(=O)c1c(NC(=O)C2CCCCC2)sc2c1CCC2)C(=O)Nc1[nH]cnc2ncnc1-2 (configuration not stated) | > 10 | IC50 (HEPG2TOX_HILL_SLOPE 8.29, HEPG2TOX_R_SQUARED 0.38, read-out: LUCIFERASE INFECTION ASSAY - IC50): > 10 µM |
| O=C(COc1ccc2c3c(c(=O)oc2c1)CCC3)Nc1nc(-c2ccccn2)cs1 | > 10 | IC50 (HEPG2TOX_HILL_SLOPE 8.22, HEPG2TOX_R_SQUARED 0.725, PBLUC_HILL_SLOPE 12.7, PBLUC_R_SQUARED 0.0522, read-out: LUCIFERASE INFECTION ASSAY - IC50): 9.13 µM |
| O=C1/C(=C/c2ccc3c(c2)OCO3)CCCc2ccccc21 | > 11.3 | IC50 (HEPG2TOX_HILL_SLOPE 8.25, HEPG2TOX_R_SQUARED 0.793, PBLUC_HILL_SLOPE 3.07, PBLUC_R_SQUARED 0.361, read-out: LUCIFERASE INFECTION ASSAY - IC50): > 11.3 µM |
| CCCCNC(=O)Nc1nc(-c2ccccc2)cn1/N=C/c1ccccc1 | > 10 | IC50 (HEPG2TOX_HILL_SLOPE 8.27, HEPG2TOX_R_SQUARED 0.417, read-out: LUCIFERASE INFECTION ASSAY - IC50): > 10 µM |
| COc1cc(-c2cn3c(-c4cccc(C(C)=O)c4)cnc3cn2)ccc1O | > 9.18 | IC50 (HEPG2TOX_HILL_SLOPE 8.28, HEPG2TOX_R_SQUARED 0.589, PBLUC_HILL_SLOPE 10.1, PBLUC_R_SQUARED 0.274, read-out: LUCIFERASE INFECTION ASSAY - IC50): 7.75 µM |

| SMILES | IC90 [µM] | other results |
| --- | --- | --- |
| O=C(/C=C/c1ccccc1OC(F)F)N(Cc1ccccc1)c1nnc(SC(F)F)s1 | 3.6 | IC50 (HEPG2TOX_HILL_SLOPE 8.23, HEPG2TOX_R_SQUARED 0.589, PBLUC_HILL_SLOPE 26.6, PBLUC_R_SQUARED 0.272, read-out: LUCIFERASE INFECTION ASSAY - IC50): 3.31 µM |
| FC(F)Oc1ccc(NC(=S)NCC23CC4CC(CC(C4)C2)C3)cc1 | 9.77 | IC50 (HEPG2TOX_HILL_SLOPE 8.2, HEPG2TOX_R_SQUARED 0.229, PBLUC_HILL_SLOPE 14.4, PBLUC_R_SQUARED 0.791, read-out: LUCIFERASE INFECTION ASSAY - IC50): 8.38 µM |
| Cn1cc(-c2cn3c(-c4cccc(O)c4)cnc3cn2)cn1 | > 11.3 | IC50 (HEPG2TOX_HILL_SLOPE 8.37, HEPG2TOX_R_SQUARED 0.807, PBLUC_HILL_SLOPE 3.66, PBLUC_R_SQUARED 0.561, read-out: LUCIFERASE INFECTION ASSAY - IC50): 6.93 µM |
| C=C(C)[C@@H]1CC=C(CN2CCC3(CC2)C(=O)N(Cc2cccnc2)C(=O)N3CCc2ccccc2)CC1 | > 6.62 | IC50 (HEPG2TOX_HILL_SLOPE 8.2, HEPG2TOX_R_SQUARED 0.91, PBLUC_HILL_SLOPE 3.93, PBLUC_R_SQUARED 0.652, read-out: LUCIFERASE INFECTION ASSAY - IC50): 3.82 µM |
| Cc1c(C(=O)Nc2ccccc2C(=O)NC2CC2)cnn1-c1cccc(C(F)(F)F)c1 | 0.41 | IC50 (HEPG2TOX_HILL_SLOPE 8.3, HEPG2TOX_R_SQUARED 0.547, PBLUC_HILL_SLOPE 12.1, PBLUC_R_SQUARED 0.521, read-out: LUCIFERASE INFECTION ASSAY - IC50): 0.342 µM |
| COc1ccc(N/N=C2\C=CC(=O)c3ncccc32)cc1 | > 10 | IC50 (HEPG2TOX_HILL_SLOPE 8.38, HEPG2TOX_R_SQUARED 0.289, PBLUC_HILL_SLOPE 16, PBLUC_R_SQUARED 0.427, read-out: LUCIFERASE INFECTION ASSAY - IC50): 9.1 µM |
| COc1cc(C(=O)NCCCn2ccc3ccccc32)cc(OC)c1C | > 10 | IC50 (HEPG2TOX_HILL_SLOPE 8.33, HEPG2TOX_R_SQUARED 0.471, PBLUC_HILL_SLOPE 17.9, PBLUC_R_SQUARED 0.367, read-out: LUCIFERASE INFECTION ASSAY - IC50): 9.65 µM |
| CN(C)C(=O)c1ccc(-c2cc3c(Nc4cccc(OC(F)(F)F)c4)nccc3[nH]2)cc1 | > 10 | IC50 (HEPG2TOX_HILL_SLOPE 8.24, HEPG2TOX_R_SQUARED 0.393, PBLUC_HILL_SLOPE 3.02, PBLUC_R_SQUARED 0.574, read-out: LUCIFERASE INFECTION ASSAY - IC50): 4.92 µM |
| CN(CC(=O)Nc1nc(C23CC4CC(CC(C4)C2)C3)cs1)C(=O)c1ccco1 | 4.63 | IC50 (HEPG2TOX_HILL_SLOPE 8.2, HEPG2TOX_R_SQUARED 0.447, PBLUC_HILL_SLOPE 10.5, PBLUC_R_SQUARED 0.337, read-out: LUCIFERASE INFECTION ASSAY - IC50): 3.76 µM |
| O=C(Nc1cccc(-n2cnnn2)c1)c1ccc(-c2ccccc2Cl)o1 | > 9.02 | IC50 (HEPG2TOX_HILL_SLOPE 8.29, HEPG2TOX_R_SQUARED 0.71, PBLUC_HILL_SLOPE 14.4, PBLUC_R_SQUARED 0.296, read-out: LUCIFERASE INFECTION ASSAY - IC50): 8.92 µM |
| Cc1oc(C(C)(C)C)cc1-c1cc(NC(=O)Nc2ccc(OC(F)(F)F)cc2)n(-c2cc(C(F)(F)F)cc(C(F)(F)F)c2)n1 | 4.49 | IC50 (HEPG2TOX_HILL_SLOPE 8.23, HEPG2TOX_R_SQUARED 0.187, PBLUC_HILL_SLOPE 2.09, PBLUC_R_SQUARED 0.645, read-out: LUCIFERASE INFECTION ASSAY - IC50): 1.57 µM |
| CCCCNC(=O)c1c(NC(=O)c2cccc(C)c2)nc2ccccn12 | 6.37 | IC50 (HEPG2TOX_HILL_SLOPE 8.37, HEPG2TOX_R_SQUARED 0.0961, PBLUC_HILL_SLOPE 7.21, PBLUC_R_SQUARED 0.187, read-out: LUCIFERASE INFECTION ASSAY - IC50): 4.7 µM |
| CCC(C)NC(=O)c1c(NC(=O)c2cccc(C)c2)nc2ccc(C)cn12 (configuration not stated) | 6.6 | IC50 (HEPG2TOX_HILL_SLOPE 8.22, HEPG2TOX_R_SQUARED 0.0887, PBLUC_HILL_SLOPE 4.24, PBLUC_R_SQUARED 0.444, read-out: LUCIFERASE INFECTION ASSAY - IC50): 3.93 µM |
| OCc1cccc(-c2cnc3ccc(-c4cccc(OC(F)(F)F)c4)nn23)c1 | 4.21 | IC50 (HEPG2TOX_HILL_SLOPE 8.38, HEPG2TOX_R_SQUARED 0.945, PBLUC_HILL_SLOPE 12.7, PBLUC_R_SQUARED 0.452, read-out: LUCIFERASE INFECTION ASSAY - IC50): 3.54 µM |
| COc1ccccc1-c1nnc(SC(C(=O)Nc2cc(Cl)cc(Cl)c2)c2ccccc2)o1 (configuration not stated) | 7.61 | IC50 (HEPG2TOX_HILL_SLOPE 8.26, HEPG2TOX_R_SQUARED 0.825, PBLUC_HILL_SLOPE 4.24, PBLUC_R_SQUARED 0.374, read-out: LUCIFERASE INFECTION ASSAY - IC50): 4.54 µM |

Source: ChEMBL document CHEMBL4483862, “Open-source discovery of chemical leads for next-generation chemoprotective antimalarials” (2018)
